From ChEMBL document CHEMBL1137989, “Synthesis, electrochemistry, and bioactivity of the cyanobacterial calothrixins and related quinones” (J Med Chem, 2004)

Test system: HeLa
Assay: Cytotoxicity against HeLa cell lines
Type: functional, cell-based
Conditions: Homo sapiens

Compound | EC50
COn1c2c(c3ccccc31)C(=O)c1ccccc1C2=O | 1600 nM
O=C1c2ccncc2C(=O)c2c1[nH]c1ccccc21 | 150 nM
COC(=O)c1ccccc1C(=O)c1cn(OC)c2ccccc12 | > 50000 nM
COC(=O)c1ccccc1C(=O)c1c[nH]c2ccccc12 | > 50000 nM
COCn1c2c(c3ccccc31)C(=O)c1cnc3ccccc3c1C2=O | 420 nM
O=C1c2ccccc2C(=O)c2c1[nH]c1ccccc21 [BENZOCARBAZOLEDIONE] | 430 nM
O=C1c2c[n+]([O-])c3ccccc3c2C(=O)c2[nH]c3ccccc3c21 [CALOTHRIXIN A] | 120 nM
O=C1c2[nH]c3ccccc3c2C(=O)c2cnc3ccccc3c21 [CALOTHRIXIN B] | 240 nM
CC1=CC(=O)c2ccccc2C1=O [MENADIONE] | 3700 nM
